Assay results from US20240293548A1, “CONTACT LENS FOR PHOTODYNAMIC INACTIVATION OF GERMS, PRODUCT AND METHOD OF TREATING FUNGAL KERATITIS BY APPLYING THE SAME” (NATIONAL CHENG KUNG UNIVERSITY, priority 2023, published 2024).

Tests used:
[1] = tested on: C. albicans; assay: Antimicrobial efficacy of the photoactive solution after adding a low concentration of hydrogen peroxide; type: cell-based, Candida albicans; conditions: for C. albicans amount compared to the NC group: no light exposure
Method: The negative control (referred to as NC) group was the fungal solution of C. albicans not being treated with RB, hydrogen peroxide, and light exposure. The light control (referred to as LC) group was the fungal solution of C. albicans exposed to light but contained neither RB nor hydrogen peroxide. […] The hydrogen peroxide (referred to as H2O2) group was the fungal solution of C. albicans treated with 0.03 wt % hydrogen peroxide without RB for 15 minutes but not subjected to the light exposure treatment. The photodynamic therapy (referred to as PDT) group was the fungal solution of C. albicans treated with 0.1 wt % RB without hydrogen peroxide for 15 minutes and subjected to 35 J/cm^2 green light exposure treatment. The photodynamic therapy with 0.03 wt hydrogen peroxide (referred to as H2O2+PDT) group was the fungal solution of C. albicans treated with 0.1 wt % RB and 0.03 wt % hydrogen peroxide for 15 minutes and subjected to the 35 J/cm^2 green light exposure treatment. FIG. 6 was a bar chart illustrating the amount of C. albicans after different treatments in the fungal solution according to some embodiments of the present invention. The x-axis represented the NC group, the LC group, the DC group, the H2O2 group, the PDT group, and the H2O2+PDT group from left to right. The y-axis represented the C. albicans amount (unit: log CFU/mL).

[2] = tested on: Candida albicans (drug-resistant strain, BCRC 21538 / ATCC 10231); assay: Antimicrobial efficacy of rose bengal-PDT (colony counting after green light exposure); type: cell-based; conditions: 0.2 wt % RB; for log reduction value of the amounts of C. albicans: compared to without light exposure; for antimicrobial rate: equivalent of log reduction
Method: A drug-resistant strain of Candida albicans was bought from the Bioresource Collection and Research Center (BCRC), Food Industry Research and Development Institute (FIRDI), 331, Shipin Rd., East Dist., Hsinchu City, Taiwan (postcode: 300193) under the accession number of BCRC 21538. The same strain could also be bought from American Type Culture Collection (ATCC), VA, USA under an accession number of ATCC 10231.
The Candida albicans was grown and prepared in a fungal solution with an amount of 1×10^7 CFU/mL and mixed with an equal volume of rose bengal (RB) solution (i.e., the mixed volume ratio was 1:1) to obtain a mixed solution containing 0.2 wt % RB (0.2 wt % RB group).
A portion of the mixed solution containing 0.2 wt % RB and fungi was exposed to green light of 10 J/cm^2 or 20 J/cm^2 at 25±1° C., and another portion of the mixed solution was not treated with light exposure. The light source of the aforementioned green light was a commercial green light LED with an emission peak at the wavelength of 520 nm. […] Noted that three drops represented three repeats. […] In the control group, the fungal solution was mixed with an equal volume of PBS.

O=C1OC2(c3cc(I)c(O)c(I)c3Oc3c2cc(I)c(O)c3I)c2c(Cl)c(Cl)c(Cl)c(Cl)c21 [RB, rose bengal]
C. albicans amount compared to the NC group ([1]; DC group: 0.1 wt % RB for 15 minutes): no significant difference | log reduction value of the C. albicans amount ([1]; PDT group: 0.1 wt % RB without hydrogen peroxide, 15 minutes, 35 J/cm^2 green light, compared to NC group): 2.5 | log reduction value of the amounts of C. albicans ([2]; 10 J/cm^2 green light (520 nm)): 1 | antimicrobial rate ([2]; 10 J/cm^2 green light): 90% | log reduction value of the amounts of C. albicans ([2]; 20 J/cm^2 green light (520 nm)): 6 | antimicrobial rate ([2]; 20 J/cm^2 green light): 99.9999%

OO [hydrogen peroxide]
C. albicans amount compared to the NC group ([1]; H2O2 group: 0.03 wt % hydrogen peroxide without RB for 15 minutes): no significant difference
